Experimental data taken from patent publication US7339065B2, “Design and synthesis of optimized ligands for PPAR” (Bethesda Pharmaceuticals, Inc., priority 2003, dated 2008).

Legend:
[1] = target: T1, PPARalpha (Homo sapiens, UniProt Q07869); test: cell based transactivation assay, PPARalpha; conditions: activation, transactivation assay in vitro; read-out: EC50 for PPAR isoforms: PPARalpha
T1 construct: uses chimeric receptors where the PPAR LBD is fused to the DBD of the yeast transcription factor GAL4; expressed in transfected cells
T1 sequence (Q07869 239-466 limits assumed): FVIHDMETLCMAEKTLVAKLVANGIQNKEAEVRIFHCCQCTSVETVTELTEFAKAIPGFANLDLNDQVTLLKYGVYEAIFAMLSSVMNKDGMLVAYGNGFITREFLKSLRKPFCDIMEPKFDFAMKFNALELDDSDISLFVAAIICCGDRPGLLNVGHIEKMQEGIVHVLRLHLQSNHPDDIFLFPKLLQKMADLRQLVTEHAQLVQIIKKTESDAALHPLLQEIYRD
Description: (§1) The binding of agonist ligands to the receptor results in changes in the expression level of mRNAs encoded by PPAR target genes. This process, “transactivation”, is determined by cell-based assays which monitor this functional activity. Transactivation assays use cells that have been transfected with a vector expressing the receptor as well as a second vector containing a DNA direct repeat (DR-1) response element and a reporter gene, which encodes an enzyme such as chloramphenicol acetyltransferase, secreted placental alkaline phosphatase, or firefly luciferase. […]
(§2) The binding of agonist ligands to a nuclear receptor results in transactivation, i.e., changes in the expression level of mRNAs encoded by PPAR target genes. […] Activation of the receptor by agonist ligands leads to induction of reporter enzyme expression, which can be conveniently assayed using standard colorimetric or photometric plate readers. […]

[2] = target: T2, PPARgamma (Homo sapiens, UniProt P37231); test: cell based transactivation assay, PPARgamma; conditions: activation, transactivation assay in vitro; read-out: EC50 for PPAR isoforms: PPARgamma
T2 construct: uses chimeric receptors where the PPAR LBD is fused to the DBD of the yeast transcription factor GAL4; expressed in transfected cells
T2 sequence (P37231 238-503 limits assumed): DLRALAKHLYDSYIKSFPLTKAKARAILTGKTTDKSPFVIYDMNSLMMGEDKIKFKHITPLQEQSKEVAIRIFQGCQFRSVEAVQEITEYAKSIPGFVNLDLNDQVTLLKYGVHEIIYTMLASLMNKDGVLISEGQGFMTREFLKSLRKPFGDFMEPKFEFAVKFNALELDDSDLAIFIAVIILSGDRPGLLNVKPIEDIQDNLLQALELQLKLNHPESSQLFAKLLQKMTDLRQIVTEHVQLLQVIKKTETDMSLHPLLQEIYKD
Description: as §1, §2

[3] = system: human psoriasis skin engrafted onto severe combined immunodeficient (SCID) mice; test: SCID mouse, human skin transplant model of psoriasis; type: in vivo
Description: Background: Human psoriasis skin engrafted onto severe combined immunodeficient (SCID) mice maintains its abnormal histologic characteristics in the absence of any treatment. Treatment of this SCID mouse, human skin transplant model of psoriasis with anti-psoriatic drugs will improve the histologic phenotype of the transplanted psoriatic skin. Thus, the SCID mouse with transplanted human psoriatic skin represents a useful model of psoriasis and can be used to test the therapeutic effects of antipsoriatic drugs (as described in the following references: 1) Nickoloff B J, Kunkel S L, Burdick […]. Severe combined immunodeficiency mouse and human psoriatic skin chimeras. Validation of a new animal model. Am J Pathol. 1995; 146:580-588. […] Archives of Dermatology 136:609-616, 2000). Methods: Keratome pieces of lesional psoriasis skin were transplanted onto immunodeficient mice (such as CB17 strain) as previously described (Nickoloff B J, Kunkel S L, Burdick […]. Am J Pathol. 1995; 146:580-588. Ellis […], Fisher […], Benson S C, Kurtz T W. Archives of Dermatology. 136:609-616, 2000). The transplanted tissue was allowed to heal for four weeks after which six animals were treated once daily for 4-8 weeks by topical application of BP107 to the psoriatic skin in concentrations sufficient to exert an antipsoriatic effect (concentrations ranging from 0.1 micromolar to 10 millimolar in appropriate amounts of vehicle such as DMSO, propylene glycol, or other vehicles familiar to those skilled in the art). At the end of the treatment period, the animals were sacrificed, tissue pieces were fixed in 10% buffered formalin, embedded in paraffin, sectioned, stained with hematoxylin and eosin, and evaluated histologically using techniques familiar to those skilled in the art. Animals topically treated with the corresponding vehicle without any BP107 were used as controls.

[4] = target: T3, PPARdelta (Homo sapiens, UniProt Q03181); test: cell based transactivation assay, PPARdelta; conditions: activation, transactivation assay in vitro; read-out: EC50 for PPAR isoforms: PPARdelta
T3 construct: uses chimeric receptors where the PPAR LBD is fused to the DBD of the yeast transcription factor GAL4; expressed in transfected cells
T3 sequence (Q03181 211-439 limits assumed): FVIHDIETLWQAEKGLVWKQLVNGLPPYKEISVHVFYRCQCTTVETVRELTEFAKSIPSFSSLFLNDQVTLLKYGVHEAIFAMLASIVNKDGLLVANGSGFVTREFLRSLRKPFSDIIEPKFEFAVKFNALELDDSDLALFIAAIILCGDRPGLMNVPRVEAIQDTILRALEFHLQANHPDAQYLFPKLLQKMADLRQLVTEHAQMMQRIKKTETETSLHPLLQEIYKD
Description: as §1, §2

[5] = topical, once daily for 4-8 weeks, histology

- EC50 [1]: > 10 µM
- EC50 [2]: < 1 nM
- EC50 [4]: > 10 µM
SMILES: CN(CCOc1ccc(CC2SC(=O)NC2=O)cc1)C(=O)CCCCC1C2CC3CC(C2)CC1C3 (stereo not drawn) [BP 107, 5-Adamantan-2-yl-pentanoic acid {2-[4-(2,4-dioxo-thiazolidin-5-ylmethyl)-phenoxy]-ethyl}-methyl-amide]
- antipsoriatic effect compared to animals treated with troglitazone or rosiglitazone ([3]; topical BP107 vs weaker PPAR gamma activators): much better
- granular layer [3, 5]: present in much of the epidermis
- inflammatory response [3, 5]: reduced
- pattern of epidermal differentiation [3, 5]: more normal pattern
- overall skin thickness ([3]; topical, once daily for 4-8 weeks, histology, vs vehicle controls): reduced
- anti-psoriatic effect compared to control animals ([3]; topical, once daily for 4-8 weeks, controls treated with vehicle): clearly evident
